Here are results for 23 compounds from patent US20230257354A1, “NOVEL HETEROCYCLIC COMPOUNDS” (Hoffmann-La Roche Inc., priority 2020, published 2023).

The subject of this assay is Acinetobacter baumannii ATCC17978. As to the kind of experiment: Antimicrobial susceptibility testing, 90% growth inhibitory concentration (IC90) determination, ATCC17978. The conditions noted are these: Iso-Sensitest broth, OD 600 nm over 16 h, 35±2° C., read-out: ATCC 17978 IC90. The assay is classed as cell-based. As to the method: Antimicrobial Susceptibility Testing: 90% Growth Inhibitory Concentration (IC90) Determination The in vitro antimicrobial activity of the compounds was determined according to the following procedure: The assay used a 10-points Iso-Sensitest broth medium to measure quantitatively the in vitro activity of the compounds against Acinetobacter baumannii ATCC17978 or ATCC17961. Stock compounds in DMSO were serially twofold diluted (e.g. range from 50 to 0.097 μM final concentration) in 384 wells microtiter plates and inoculated with 49 μl the bacterial suspension in Iso-Sensitest medium to have a final cell concentration of ˜5×10^(5) CFU/ml in a final volume/well of 50 ul/well. Microtiter plates were incubated at 35±2° C. Bacterial cell growth was determined with the measurement of optical density at X=600 nm each 20 minutes over a time course of 16 h. Growth inhibition was calculated during the logarithmic growth of the bacterial cells with determination of the concentration inhibiting 50% (IC50) and 90% (IC90) of the growth. Table 1 provides the 90% growth inhibitory concentrations (IC90) in micromoles per liter of the compounds of present invention obtained against the strain Acinetobacter baumannii ATCC17978.

Molecules are shown by their SMILES. Structures can show the parent of a compound that is named as a salt.

Usually IC90 stands for the concentration at which the effect reaches the 90% level. `CCc1cc(NC(=O)c2ncc(-c3ccc(OCC#N)c(F)c3F)n2C)ccc1C(=O)NCCOCCN` [Example A20, N-[4-[2-(2-aminoethoxy)ethylcarbamoyl]-3-ethyl-phenyl]-5-[4-(cyanomethoxy)-2,3-difluoro-phenyl]-1-methyl-imidazole-2-carboxamide;hydrochloride]: the IC90 turned out to be 960 nM.

In the case of `CCc1cc(NC(=O)c2ncc(-c3ccc(OCC(N)=O)c(F)c3F)n2C)ccc1C(=O)NCCOCCN` [Example A21, N-[4-[2-(2-aminoethoxy)ethylcarbamoyl]-3-ethyl-phenyl]-5-[4-(2-amino-2-oxo-ethoxy)-2,3-difluoro-phenyl]-1-methyl-imidazole-2-carboxamide;hydrochloride], the IC90 turned out to be 4700 nM.

Turning to `CCc1cc(NC(=O)c2ncc(-c3ccc(OCC#N)c(F)c3Cl)n2C)ccc1C(=O)NCCOCCN` [Example A22, N-[4-[2-(2-aminoethoxy)ethylcarbamoyl]-3-ethyl-phenyl]-5-[2-chloro-4-(cyanomethoxy)-3-fluoro-phenyl]-1-methyl-imidazole-2-carboxamide;hydrochloride], the IC90 turned out to be 180 nM.

As for `COc1ccc(-c2cnc(C(=O)Nc3ccc(C(=O)NC4CCN(C(=O)CN(C)C)C4)c(Cl)c3)n2C)c(F)c1F` (centres unmarked) [Example A23, N-[3-Chloro-4-[[1-[2-(dimethylamino)acetyl]pyrrolidin-3-yl]carbamoyl]phenyl]-5-(2,3-difluoro-4-methoxy-phenyl)-1-methyl-imidazole-2-carboxamide], the IC90 came out at 220 nM.

Turning to `COc1ccc(-c2cnc(C(=O)Nc3ccc(C(=O)NCCNC(=O)CN(C)C)c(Cl)c3)n2C)c(F)c1F` [Example A24, N-[3-chloro-4-[2-[[2-(dimethylamino)acetyl]amino]ethylcarbamoyl]phenyl]-5-(2,3-difluoro-4-methoxy-phenyl)-1-methyl-imidazole-2-carboxamide;2,2,2-trifluoroacetic acid], the IC90 stood at 670 nM.

Turning to `COc1ccc(-c2cnc(C(=O)Nc3ccc(C(=O)NC4CCN(C(=O)CN(C)C)CC4)c(Cl)c3)n2C)c(F)c1F` [Example A25, N-[3-chloro-4-[[1-[2-(dimethylamino)acetyl]-4-piperidyl]carbamoyl]phenyl]-5-(2,3-difluoro-4-methoxy-phenyl)-1-methyl-imidazole-2-carboxamide], the concentration for an effect of 90% (IC90) came out at 130 nM.

Turning to `COc1ccc(-c2cnc(C(=O)Nc3ccc(C(=O)NCCCCCN(C)C)c(Cl)c3)n2C)c(F)c1F` [Example A26, N-[3-chloro-4-[5-(dimethylamino)pentylcarbamoyl]phenyl]-5-(2,3-difluoro-4-methoxy-phenyl)-1-methyl-imidazole-2-carboxamide], the concentration for an effect of 90% (IC90) is 200 nM.

As for `CC(C)CCOCCNC(=O)c1ccc(NC(=O)c2ncc(-c3ccc(OCC#N)c(F)c3F)n2C)cc1Cl` [Example A27, N-[3-chloro-4-(2-isopentyloxyethylcarbamoyl)phenyl]-5-[4-(cyanomethoxy)-2,3-difluoro-phenyl]-1-methyl-imidazole-2-carboxamide;formic acid], the IC90 was 240 nM.

In the case of `COc1ccc(-c2cnc(C(=O)Nc3ccc(C(=O)NCCN4CCC(O)C4)c(Cl)c3)n2C)c(F)c1F` (centres unmarked) [Example A28, N-[3-chloro-4-[2-(3-hydroxypyrrolidin-1-yl)ethylcarbamoyl]phenyl]-5-(2,3-difluoro-4-methoxy-phenyl)-1-methyl-imidazole-2-carboxamide], the IC90 amounted to 1200 nM.

As to `CCc1cc(NC(=O)c2ncc(-c3ccc(OC)c(F)c3F)n2C)ccc1C(=O)NCCCOCCN(C)C` [Example A30, 5-(2,3-difluoro-4-methoxy-phenyl)-N-[4-[3-[2-(dimethylamino)ethoxy]propylcarbamoyl]-3-ethyl-phenyl]-1-methyl-imidazole-2-carboxamide], the IC90 is 250 nM.

Take `COc1ccc(-c2cnc(C(=O)Nc3ccc(C(=O)NC4CCN(C(=O)C5CCNCC5)C4)c(Cl)c3)n2C)c(F)c1F` (centres unmarked) [Example B1, N-[3-Chloro-4-[[1-(piperidine-4-carbonyl)pyrrolidin-3-yl]carbamoyl]phenyl]-5-(2,3-difluoro-4-methoxy-phenyl)-1-methyl-imidazole-2-carboxamide; formic acid]: the IC90 amounted to 110 nM.

Turning to `COc1ccc(-c2cnc(C(=O)Nc3ccc(C(=O)NC4CCN(C(=O)[C@@H]5CCNC5)C4)c(Cl)c3)n2C)c(F)c1F` (stereo partly drawn) [Example B2, N-[3-chloro-4-[[1-[(3R)-pyrrolidine-3-carbonyl]pyrrolidin-3-yl]carbamoyl]phenyl]-5-(2,3-difluoro-4-methoxy-phenyl)-1-methyl-imidazole-2-carboxamide;formic acid], the IC90 worked out at 130 nM.

Take `COc1ccc(-c2cnc(C(=O)Nc3ccc(C(=O)NC4CCN(C(=O)[C@@H]5C[C@@H](O)CN5)C4)c(Cl)c3)n2C)c(F)c1F` (stereo partly drawn) [Example B3, N-[3-chloro-4-[[1-[(2S,4R)-4-hydroxypyrrolidine-2-carbonyl]pyrrolidin-3-yl]carbamoyl]phenyl]-5-(2,3-difluoro-4-methoxy-phenyl)-1-methyl-imidazole-2-carboxamide;formic acid]: the IC90 was 280 nM.

With `COc1ccc(-c2cnc(C(=O)Nc3ccc(C(=O)NC4CCN(C(=O)CCOCCN)C4)c(Cl)c3)n2C)c(F)c1F` (centres unmarked) [Example B4, N-[4-[[1-[3-(2-aminoethoxy)propanoyl]pyrrolidin-3-yl]carbamoyl]-3-chloro-phenyl]-5-(2,3-difluoro-4-methoxy-phenyl)-1-methyl-imidazole-2-carboxamide;formic acid], the IC90 turned out to be 200 nM.

Consider `COc1ccc(-c2cnc(C(=O)Nc3ccc(C(=O)NC4CCN(C(=O)C5CCNCC5)CC4)c(Cl)c3)n2C)c(F)c1F` [Example B5, N-[3-chloro-4-[[1-(piperidine-4-carbonyl)-4-piperidyl]carbamoyl]phenyl]-5-(2,3-difluoro-4-methoxy-phenyl)-1-methyl-imidazole-2-carboxamide;formic acid], for which the IC90 came out at 79 nM.

For the compound `COc1ccc(-c2cnc(C(=O)Nc3ccc(C(=O)NC4CCN(C(=O)[C@@H]5CCNC5)CC4)c(Cl)c3)n2C)c(F)c1F` [Example B6, N-[3-chloro-4-[[1-[(3R)-pyrrolidine-3-carbonyl]-4-piperidyl]carbamoyl]phenyl]-5-(2,3-difluoro-4-methoxy-phenyl)-1-methyl-imidazole-2-carboxamide;formic acid], the IC90 amounted to 100 nM.

In the case of `COc1ccc(-c2cnc(C(=O)Nc3ccc(C(=O)NC4CCN(C(=O)[C@@H]5C[C@@H](O)CN5)CC4)c(Cl)c3)n2C)c(F)c1F` [Example B7, N-[3-chloro-4-[[1-[(2S,4R)-4-hydroxypyrrolidine-2-carbonyl]-4-piperidyl]carbamoyl]phenyl]-5-(2,3-difluoro-4-methoxy-phenyl)-1-methyl-imidazole-2-carboxamide], the IC90 stood at 82 nM.

For `COc1ccc(-c2cnc(C(=O)Nc3ccc(C(=O)NC4CCN(C(=O)CCOCCN)CC4)c(Cl)c3)n2C)c(F)c1F` [Example B8, N-[4-[[1-[3-(2-aminoethoxy)propanoyl]-4-piperidyl]carbamoyl]-3-chloro-phenyl]-5-(2,3-difluoro-4-methoxy-phenyl)-1-methyl-imidazole-2-carboxamide;formic acid], the IC90 was found to be 140 nM.

As for `COc1ccc(-c2cnc(C(=O)Nc3ccc(C(=O)N[C@H]4C[C@@H](NC(=O)C5CC(CN)C5)C4)c(Cl)c3)n2C)c(F)c1F` (some centres unmarked) [Example B9, N-[4-[[3-[[3-(aminomethyl)cyclobutanecarbonyl]amino]cyclobutyl]carbamoyl]-3-chloro-phenyl]-5-(2,3-difluoro-4-methoxy-phenyl)-1-methyl-imidazole-2-carboxamide;formic acid], the IC90 turned out to be 210 nM.

As for `Cn1c(-c2ccc(OC(F)F)c(F)c2F)cnc1C(=O)Nc1ccc(C(=O)NCCC2CN(C(=O)CCN)C2)c(Cl)c1` [Example B10, N-[4-[2-[1-(3-aminopropanoyl)azetidin-3-yl]ethylcarbamoyl]-3-chloro-phenyl]-5-[4-(difluoromethoxy)-2,3-difluoro-phenyl]-1-methyl-imidazole-2-carboxamide;2,2,2-trifluoroacetic acid], the IC90 was found to be 140 nM.

Consider `Cn1c(-c2ccc(OC(F)F)c(F)c2F)cnc1C(=O)Nc1ccc(C(=O)NCCCNC(=O)CCN)c(Cl)c1` [Example B11, N-[4-[3-(3-aminopropanoylamino)propylcarbamoyl]-3-chloro-phenyl]-5-[4-(difluoromethoxy)-2,3-difluoro-phenyl]-1-methyl-imidazole-2-carboxamide;2,2,2-trifluoroacetic acid], for which the IC90 amounted to 230 nM.

`CCc1cc(NC(=O)c2ncc(-c3ccc(OC(F)F)c(F)c3F)n2C)ccc1C(=O)NCCCNC(=O)C1CCNCC1` [Example B12, N-[3-[[4-[[5-[4-(difluoromethoxy)-2,3-difluoro-phenyl]-1-methyl-imidazole-2-carbonyl]amino]-2-ethyl-benzoyl]amino]propyl]piperidine-4-carboxamide;formic acid]: the concentration for an effect of 90% (IC90) was determined as 760 nM.

On to `Cc1cc(NC(=O)c2ncc(-c3ccc(OCC#N)c(F)c3F)n2C)ccc1C(=O)NCCNC(=O)C1CCNCC1` [Example B13, N-[2-[[4-[[5-[4-(cyanomethoxy)-2,3-difluoro-phenyl]-1-methyl-imidazole-2-carbonyl]amino]-2-methyl-benzoyl]amino]ethyl]piperidine-4-carboxamide;formic acid], for which the IC90 was found to be 910 nM.
